Molecular target: Leucine-rich repeat serine/threonine-protein kinase 2 (Homo sapiens, UniProt Q5S007)
Assay: LRRK2 Assay: LRRK2 kinase activity was measured using Lantha Screen technology from Invitrogen. GST-tagged truncated LRRK2 from Invitrogen (Cat #PV4874) was incubated with a fluorescein-labeled peptide substrate based upon ezrin/radixin/moesin (ERM), also known as LRRKtide (Invitrogen cat #PR8976A), in the presence of a dose response of compound. Upon completion, the assay was stopped and detected with a terbium labeled anti-phospho-ERM antibody (Invitrogen, cat #PR8975A). The assay was carried out under the following protocol: The compound dose response was prepared by diluting compound to a top concentration of 0.3 mM in 100% DMSO and serial diluted by half-log in DMSO to give an 11 point curve, 100× final assay concentration. Using Echo acoustic dispensing, 60 nL of compound was transferred to a low volume Corning 384-well assay plate. 3 μL of a working solution of substrate (200 nM LRRKtide, 2 mM ATP) prepared in assay buffer (50 mM HEPES, pH 7.5, 3 mM MgCl2, with 2 mM DTT and 0.01% Brij35 added fresh) was added to the 60 nL compound assay plate. The kinase reaction was started with 3 μL of a working solution of LRRK2 enzyme at a concentration of 4 μg/mL. The final reaction concentrations were 100 nM LRRKtide, 1 mM ATP, 2 μg/mL LRRK2 enzyme and a compound dose response with a top dose of 3 μM. […]

Chain of Leucine-rich repeat serine/threonine-protein kinase 2 (Q5S007 whole entry, looked up, the tested form may be a part): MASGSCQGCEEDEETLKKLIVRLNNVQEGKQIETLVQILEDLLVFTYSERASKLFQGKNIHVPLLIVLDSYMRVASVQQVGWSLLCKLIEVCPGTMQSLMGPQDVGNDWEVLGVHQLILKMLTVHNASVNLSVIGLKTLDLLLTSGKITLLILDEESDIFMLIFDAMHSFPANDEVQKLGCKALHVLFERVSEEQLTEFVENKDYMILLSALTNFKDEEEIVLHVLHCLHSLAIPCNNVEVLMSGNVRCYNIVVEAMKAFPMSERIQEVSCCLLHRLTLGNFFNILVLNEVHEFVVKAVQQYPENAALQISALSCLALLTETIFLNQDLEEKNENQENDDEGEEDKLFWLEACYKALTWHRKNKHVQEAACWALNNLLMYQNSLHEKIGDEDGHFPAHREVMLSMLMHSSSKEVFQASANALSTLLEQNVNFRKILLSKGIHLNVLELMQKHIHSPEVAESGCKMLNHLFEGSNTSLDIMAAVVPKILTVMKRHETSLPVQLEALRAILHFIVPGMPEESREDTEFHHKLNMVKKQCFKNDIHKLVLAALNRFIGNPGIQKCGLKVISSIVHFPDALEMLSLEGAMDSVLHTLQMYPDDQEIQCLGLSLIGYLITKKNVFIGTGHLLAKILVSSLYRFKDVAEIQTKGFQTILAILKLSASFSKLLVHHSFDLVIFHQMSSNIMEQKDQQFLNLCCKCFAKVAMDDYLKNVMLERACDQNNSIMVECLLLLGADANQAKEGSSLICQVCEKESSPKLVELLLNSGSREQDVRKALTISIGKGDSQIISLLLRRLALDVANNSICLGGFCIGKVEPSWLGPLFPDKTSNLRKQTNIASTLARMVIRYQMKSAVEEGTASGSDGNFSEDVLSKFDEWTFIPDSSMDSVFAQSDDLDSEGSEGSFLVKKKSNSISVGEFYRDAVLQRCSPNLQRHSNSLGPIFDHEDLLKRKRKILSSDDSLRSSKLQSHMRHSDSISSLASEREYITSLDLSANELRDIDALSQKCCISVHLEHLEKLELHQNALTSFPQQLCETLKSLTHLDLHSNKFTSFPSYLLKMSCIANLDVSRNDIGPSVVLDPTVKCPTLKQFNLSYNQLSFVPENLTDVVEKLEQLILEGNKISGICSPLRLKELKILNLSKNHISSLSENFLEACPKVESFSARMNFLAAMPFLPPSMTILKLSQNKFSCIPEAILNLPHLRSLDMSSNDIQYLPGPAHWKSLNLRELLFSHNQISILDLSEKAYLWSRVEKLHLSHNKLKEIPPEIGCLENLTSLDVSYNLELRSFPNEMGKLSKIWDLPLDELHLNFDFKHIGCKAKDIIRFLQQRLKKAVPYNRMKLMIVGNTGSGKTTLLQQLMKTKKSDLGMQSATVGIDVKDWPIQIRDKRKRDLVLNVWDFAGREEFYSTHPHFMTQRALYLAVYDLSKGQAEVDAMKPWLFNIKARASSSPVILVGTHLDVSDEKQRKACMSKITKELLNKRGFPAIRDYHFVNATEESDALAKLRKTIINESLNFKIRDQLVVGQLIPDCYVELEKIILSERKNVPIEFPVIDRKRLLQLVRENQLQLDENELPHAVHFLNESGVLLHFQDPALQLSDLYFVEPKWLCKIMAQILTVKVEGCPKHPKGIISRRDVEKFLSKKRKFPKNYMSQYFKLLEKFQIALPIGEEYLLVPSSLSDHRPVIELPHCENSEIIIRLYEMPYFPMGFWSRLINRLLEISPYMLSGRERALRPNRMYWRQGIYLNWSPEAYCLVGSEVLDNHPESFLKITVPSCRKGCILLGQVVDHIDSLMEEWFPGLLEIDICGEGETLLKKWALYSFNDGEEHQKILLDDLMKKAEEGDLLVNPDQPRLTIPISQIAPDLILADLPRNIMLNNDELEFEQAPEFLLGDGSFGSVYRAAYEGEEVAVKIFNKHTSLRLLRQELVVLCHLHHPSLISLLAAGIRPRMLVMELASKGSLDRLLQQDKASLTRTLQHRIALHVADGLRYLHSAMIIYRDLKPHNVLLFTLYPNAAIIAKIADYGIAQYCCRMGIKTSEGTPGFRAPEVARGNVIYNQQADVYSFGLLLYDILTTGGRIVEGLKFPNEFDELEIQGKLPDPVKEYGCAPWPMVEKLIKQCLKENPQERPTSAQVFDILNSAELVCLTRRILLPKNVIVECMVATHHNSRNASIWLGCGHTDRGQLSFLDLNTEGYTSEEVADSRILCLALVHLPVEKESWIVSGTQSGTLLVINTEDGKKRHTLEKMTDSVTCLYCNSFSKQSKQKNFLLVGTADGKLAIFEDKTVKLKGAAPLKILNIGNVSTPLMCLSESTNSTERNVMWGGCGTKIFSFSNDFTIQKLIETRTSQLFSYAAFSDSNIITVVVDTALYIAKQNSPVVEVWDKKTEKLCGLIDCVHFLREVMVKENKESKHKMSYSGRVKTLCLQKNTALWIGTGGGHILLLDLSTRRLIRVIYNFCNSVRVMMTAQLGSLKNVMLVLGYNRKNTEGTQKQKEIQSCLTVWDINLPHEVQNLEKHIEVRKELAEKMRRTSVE

- IC50: > 2840 nM
SMILES: CN1CC[C@@H](n2c(C3CCC(F)C3)nc3cnc4ccc(F)cc4c32)C1 (stereo partly specified)

— ChEMBL document CHEMBL5728780, “Cyclic substituted imidazo[4,5-c]quinoline derivatives” (2021)
